Experimental data published in patent US11591294B2, “Fluorenone/fluorenol derivatives for aqueous redox flow batteries” (Battelle Memorial Institute, priority 2019, dated 2023).
Converted amounts (≈) assume the structure as drawn. Where two headings read alike, the source gives them in different places.

Columns and labels:
Solubility test = format: physicochemical
Method: Solubility test: The dissolving solvent was added drop by drop to 1 mmol of testing powder with intermittent agitation with VWR Vertex mixer, until all powder was dissolved. The total mass of the solution was recorded. A glass micro syringe was used to transfer 100 μL of the solution directly to a tared weight glass vial for mass measurement. Specific gravity of the as-obtained solution was calculated, then the total volume of the as-obtained solution was calculated using calculated density and recorded total solution mass. Last, molarity was calculated based on calculated total solution volume (Duan et al., ACS Energy Letters 2017, 2:1156-1161).
The solubilities of as-synthesized FLs in basic solution, 2 M NaOH/KOH, was investigated. […] The energy density is almost double that of a conventional vanadium electrolyte.

[1] = 2M KOH column; literature data provided as a comparison (tested in KOH); cited from earlier work
[2] = Post-cycling analysis of anolyte (NMR, mass spectroscopy); format: physicochemical; conditions: after 6-month operation, 1.36 M anolyte
Method: An additional test was conducted for six months (FIG. 18). […] At about cycle 650, catholyte precipitation was noticed, and replaced with fresh catholyte. No material degradation was detected by NMR or mass-spectroscopy (FIGS. 21 and 22).
For the reason that charged anolyte is usually sensitive to 02, flow battery tests of organic based electrolyte reported so far are conducted in inert atmosphere, which is a significant hurdle to their practical applications. We submit another battery test without significant deaerating treatment at reasonable CE and EE (FIGS. 34 and 35). The 1 M battery was assembled without N2 atmosphere, sealed with a stopper and parafilm, and no further deoxygenation was conducted before charging. The battery operated stably at 20 mA/cm^2 for 2 weeks. The observed capacity fluctuation was attributed to temperature changes on a daily basis. […] The first cycle low CE was attributed to charged material consuming existing 02 in the cell system. As expected, the first cycle charging capacity was a little higher than same amount of substance in a battery inside the purge box (without 02 induced discharge influence). However, no irreversible side reactions occurred and long-term cycling occurred analogous to tests conducted in an inert atmosphere purge box. […]

[3] = Cyclic voltammetry in aqueous 1 M NaOH; format: physicochemical; conditions: 1 M NaOH solution
Method: Electrochemical tests: CV measurements in aqueous phase were performed using a three-electrode configuration consisting of a glassy carbon working electrode (3 mm diameter), a glassy carbon counter electrode and an Ag/AgCl reference electrode. The electrolytes of 10 mM redox-active materials in 1.0 M NaOH were used. CV data were collected using a CHI760D potentiostat (CH Instruments) at a scan rate of 100 mV s^−1 (Hollas et al., Nature Energy 2018, 3:508-514). CV measurements in nonaqueous phase were performed using a three-electrode configuration consisting of a glassy carbon working electrode (3 mm diameter), a glassy carbon counter electrode and an Ag/AgNO3 (10 mM in Acetonitrile) as reference electrode or Ag wire as pseudo reference electrode (Inzelt et al., Handbook of Reference Electrodes, 2013, Springer). Tests were carried out in an argon-filled Mbraun glove box (Stratham, N.H., USA).
In view of the DFT calculation, it was theorized that functionalization of the FL ring structures with electron withdrawing groups such as —F, -sulfonamide, and —SO3−, among others, would shift the equilibrium constant to increase the concentration of deprotonated FL-OH anion/dianion relative to FL-OH, thereby improving the two-electron redox-reversibility of FLs. […] As expected, the CV curves with two pairs of peaks become clear and sharp with adding stronger electron withdrawing groups. […]

[4] = 2 M KOH solution, aqueous buffer, thermodynamic from solid, 2M KOH, read-out: Solubility
[5] = 2 M NaOH solution, aqueous buffer, thermodynamic from solid, 2M NaOH, read-out: Solubility

## O=C(O)c1ccc2c(c1)C(=O)c1cc(S(=O)(=O)[O-])ccc1-2.[K+] [Compound 2C7SFL]
Solubility test; [4]
  solubility: 700 mM
Solubility test; [5]
  solubility: 1100 mM

## O=C(O)c1ccc2c(c1)C(=O)c1ccccc1-2 [Compound 2CFL]
[1]
  solubility: 800 mM (≈ 179 mg/mL)

## O=C(O)c1cccc2c1-c1ccc(S(=O)(=O)O)cc1C2=O [Compound 4C7SFL, 9-Oxo-7-sulfo-9H-fluorene-4-carboxylic acid]
[2]
  post-cycling analysis (in words): small, yet observable new aromatic peaks attributed to de-sulfonation on the fluorenone core structure
Solubility test; [4]
  solubility: 1300 mM (≈ 396 mg/mL)
Solubility test; [5]
  solubility: 1500 mM (≈ 456 mg/mL)
Solubility test; two-electron redox reaction, from solubility
  available electron concentration: ~3 M

## O=C(O)c1cccc2c1-c1ccccc1C2=O [Compound 4CFL]
[1]
  solubility: 650 mM (≈ 146 mg/mL)

## N#Cc1nc2c(nc1O)-c1ccccc1C2=O [Compound 14N2CN3OHFL, 3-hydroxy-9-oxo-9H-indeno[1,2-b]pyrazine-2-carbonitrile]
[3]
  reversible peak potential: ~−0.85 V vs Ag/AgCl
Solubility test; [5]
  solubility: 1000 mM (≈ 223 mg/mL)

## O=C1c2cc(Br)cc(S(=O)(=O)[O-])c2-c2c1cc(Br)cc2S(=O)(=O)[O-].[K+].[K+] [Compound 27Br4SFL]
Solubility test; 2M KOH
  solubility: trace
Solubility test; 2M NaOH
  solubility: trace

## O=C(O)c1cc(F)cc2c1-c1c(cc(F)cc1S(=O)(=O)[O-])C2=O.[K+] [Compound 27F4C5SFL]
Solubility test; 2M NaOH
  solubility: 150 mM

## O=C(O)c1cc(F)cc2c1-c1ccc(F)cc1C2=O [Compound 27F4CFL]
Solubility test; thermodynamic from solid, with agitation, copious precipitate after sitting overnight, read-out: Solubility (transparent homogeneous solution)
  solubility: ≤ 1400 mM

## O=C(O)c1cc(S(=O)(=O)O)cc2c1-c1ccc(S(=O)(=O)O)cc1C2=O [Compound 27S4CFL, 9-oxo-2,7-sulfo-9H-fluorene-4-carboxylic acid]
Solubility test; 2M NaOH
  solubility: 800 mM (≈ 307 mg/mL)

## O=C1c2cccnc2-c2ncccc21 [Compound 45NFL, 4,5-diazafluoren-9-one]
Solubility test
  solubility (in words): limited solubility

## O=C(O)c1ccc2c(c1)C(=O)c1cc(C(=O)O)ccc1-2 [DCFL]
Solubility test; 2M KOH
  solubility: 900 mM (≈ 241 mg/mL)
Solubility test; 2M NaOH
  solubility: 40 mM (≈ 10.7 mg/mL)

## O=C1c2cc(O)ccc2-c2ccc(O)cc21 [DHFL, 9-oxo-2,7-dihydroxy-9H-fluorene]
Solubility test; pure water with 2 eq. NaOH, aqueous buffer, thermodynamic from solid, with 2 eq. NaOH in pure water, read-out: Solubility
  solubility: 600 mM (≈ 127 mg/mL)

## O=C1c2cc(S(=O)(=O)[O-])ccc2-c2ccc(S(=O)(=O)[O-])cc21.[K+].[K+] [DSFL, Potassium 9-oxo-9H-fluorene-2,7-disulfonate]
Solubility test; 2 M KOH solution, aqueous buffer, thermodynamic from solid, read-out: Solubility
  solubility: < 50 mM
Solubility test; 2 M NaOH solution, aqueous buffer, thermodynamic from solid, read-out: Solubility
  solubility: < 50 mM
Solubility test; thermodynamic from solid, disodium salt in pure water, read-out: Solubility
  solubility: ≤ 240 mM

## O=C1c2cc(OCCOCCOCCO)ccc2-c2ccc(OCCOCCOCCO)cc21 [PEG-FL]
Solubility test; 2M KOH
  solubility: trace
Solubility test; 2M NaOH
  solubility: trace
